This note sets out measurements from ChEMBL document CHEMBL3585308, “Discovery and Modification of in Vivo Active Nrf2 Activators with 1,2,4-Oxadiazole Core: Hits Identification and Structure-Activity Relationship Study” (J Med Chem, 2015).

Structures are written as SMILES. Active and inactive are the calls of the source. The calls are words filed in the database; no cut-off is given here.

Data set [1] addresses T1, Nuclear factor erythroid 2-related factor 2 (Homo sapiens) (UniProt Q16236).
T1 sequence (whole entry): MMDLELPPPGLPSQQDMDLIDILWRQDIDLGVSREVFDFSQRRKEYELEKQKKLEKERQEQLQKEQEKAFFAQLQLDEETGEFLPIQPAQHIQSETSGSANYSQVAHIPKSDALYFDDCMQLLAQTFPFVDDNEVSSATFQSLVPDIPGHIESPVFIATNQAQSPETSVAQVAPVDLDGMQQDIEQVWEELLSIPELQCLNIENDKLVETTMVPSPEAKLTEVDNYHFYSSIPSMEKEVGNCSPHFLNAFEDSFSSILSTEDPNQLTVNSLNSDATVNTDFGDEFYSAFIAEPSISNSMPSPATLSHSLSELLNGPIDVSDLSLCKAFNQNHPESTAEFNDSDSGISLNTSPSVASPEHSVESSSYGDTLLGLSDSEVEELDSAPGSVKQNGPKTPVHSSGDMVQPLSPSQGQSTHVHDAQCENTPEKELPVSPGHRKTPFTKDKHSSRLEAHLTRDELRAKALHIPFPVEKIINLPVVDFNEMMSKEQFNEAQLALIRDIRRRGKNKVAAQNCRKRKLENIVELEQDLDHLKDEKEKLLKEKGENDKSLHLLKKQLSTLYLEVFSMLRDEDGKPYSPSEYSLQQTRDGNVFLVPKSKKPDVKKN
Briefly: Activation of Nrf2 in human HepG2-ARE-C8 cells assessed as upregulation of ARE level at 40 uM after 12 hrs by luciferase reporter gene assay relative to control. Format: cell-based. A general note: In a reporter assay the amount or activity of a reporter protein is the signal.

In data set [2] the test system is HCT-116. In words: Cytotoxicity against human HCT116 cells assessed as reduction of cell proliferation at 80 uM after 24 hrs by MTT assay. Conditions: hct-116, 24 h. The format is cell-based. On the technique in general: Tetrazolium dyes change colour on reduction, which living cells bring about.
The target of data set [3] is T1, Nuclear factor erythroid 2-related factor 2 (Homo sapiens). Briefly: Activation of Nrf2 in human HepG2-ARE-C8 cells assessed as upregulation of ARE level at 80 uM after 12 hrs by luciferase reporter gene assay relative to control. Format: cell-based.
Data set [4] shares this target. Briefly: Activation of Nrf2 in human HepG2-ARE-C8 cells assessed as upregulation of ARE level at 2 uM after 12 hrs by luciferase reporter gene assay relative to control. Format: cell-based.
Data set [5] has the same target. Briefly: Activation of Nrf2 in human HepG2-ARE-C8 cells assessed as upregulation of ARE level at 0.2 uM after 12 hrs by luciferase reporter gene assay relative to control. The format is cell-based.
Data set [6] shares this target. Briefly: Activation of Nrf2 in human HepG2-ARE-C8 cells assessed as upregulation of ARE level at 0.02 uM after 12 hrs by luciferase reporter gene assay relative to control. Format: cell-based.
The target is the same in data set [7]. In words: Activation of Nrf2 in human HepG2-ARE-C8 cells assessed as upregulation of ARE level at 20 uM after 12 hrs by luciferase reporter gene assay relative to control. The format is cell-based.
Data set [8] shares this target. In words: Activation of Nrf2 in human HepG2-ARE-C8 cells assessed as upregulation of ARE level at 160 uM after 12 hrs by luciferase reporter gene assay relative to control. Format: cell-based.
Data set [9] in a line: Chemical stability assessed as compound degradation after 2 weeks. Format: physicochemical. Conditions: 336 h.
In data set [10] the target is T1, Nuclear factor erythroid 2-related factor 2 (Homo sapiens). In words: Activation of Nrf2 in human HepG2-ARE-C8 cells assessed as upregulation of ARE level at 50 uM after 12 hrs by luciferase reporter gene assay relative to control. Format: cell-based.
The target is the same in data set [11]. Briefly: Activation of Nrf2 in human HCT116 cells at 40 uM measured at 4 hrs by qRT-PCR analysis relative to control. Format: cell-based. Conditions: HCT-116. In general terms: Real-time PCR tracks product formation cycle by cycle.
Data set [12] shares this target. Briefly: Activation of Nrf2 in human HCT116 cells assessed as upregulation of HO-1 gene expression measured at 4 hrs by qRT-PCR analysis. Format: cell-based. Conditions: HCT-116.
Data set [13] shares this target. Briefly: Activation of Nrf2 in human HCT116 cells at 10 uM by qRT-PCR analysis. Conditions: HCT-116, TDE = time-dependent effect. Format: cell-based.
The target is the same in data set [14]. Briefly: Activation of Nrf2 in human HCT116 cells assessed as upregulation of GCLM gene expression measured at 4 hrs by qRT-PCR analysis. Conditions: HCT-116. Format: cell-based.
For data set [15] the target is unchanged. In words: Activation of Nrf2 in human HCT116 cells assessed as upregulation of NQO1 gene expression at 10 uM measured over 1 to 24 hrs by qRT-PCR analysis relative to control. Format: cell-based. Conditions: HCT-116.
Data set [16] has the same target. Briefly: Activation of Nrf2 in human HCT116 cells measured at 4 hrs by qRT-PCR analysis. The format is cell-based. Conditions: HCT-116.
The target is the same in data set [17]. In words: Activation of Nrf2 in human HCT116 cells assessed as upregulation of HO-1 gene expression at 40 uM measured at 4 hrs by qRT-PCR analysis relative to control. Conditions: HCT-116. The format is cell-based.
Data set [18] has the same target. Briefly: Activation of Nrf2 in human HCT116 cells assessed as upregulation of HO-1 expression at 10 uM measured at 4 hrs by Western blot analysis. Conditions: HCT-116. The format is cell-based.
Data set [19] shares this target. Briefly: Activation of Nrf2 in human HCT116 cells assessed as upregulation of GCLM gene expression at 10 uM measured at 6 hrs by qRT-PCR analysis relative to control. The format is cell-based. Conditions: HCT-116.
Data set [20] has the same target. Briefly: Activation of Nrf2 in human HCT116 cells at 10 uM measured at 4 hrs by qRT-PCR analysis relative to control. Format: cell-based. Conditions: HCT-116.
For data set [21] the target is unchanged. In words: Activation of Nrf2 in human HCT116 cells assessed as upregulation of NQO1 gene expression at 40 uM measured at 4 hrs by qRT-PCR analysis relative to control. Format: cell-based. Conditions: HCT-116.
The target is the same in data set [22]. In words: Activation of Nrf2 in human HCT116 cells assessed as upregulation of GCLM gene expression at 40 uM measured at 4 hrs by qRT-PCR analysis relative to control. Format: cell-based. Conditions: HCT-116.
Data set [23] has the same target. In words: Activation of Nrf2 in human HCT116 cells assessed as upregulation of NQO1 expression after 6 hrs by Western blot analysis. The format is cell-based. Conditions: HCT-116.
For data set [24], the system named is HCT-116. Briefly: Cytotoxicity against human HCT116 cells assessed as effect on cell proliferation at 5 to 80 uM after 24 hrs by MTT assay. Format: cell-based. Conditions: hct-116, 24 h.
Data set [25] has as its target T1, Nuclear factor erythroid 2-related factor 2 (Homo sapiens). In words: Activation of Nrf2 in human HCT116 cells assessed as upregulation of HO-1 gene expression at 10 uM measured at 6 hrs by qRT-PCR analysis relative to control. The format is cell-based. Conditions: HCT-116.
The target is the same in data set [26]. Briefly: Activation of Nrf2 in human HCT116 cells at 10 uM after 2 hrs by Western blot analysis. Format: cell-based. Conditions: HCT-116.
For data set [27] the target is unchanged. Briefly: Activation of Nrf2 in human HCT116 cells after 6 hrs by Western blot analysis. The format is cell-based. Conditions: HCT-116.

Regarding `O=[N+]([O-])c1ccccc1-c1nc(-c2ccc3nc[nH]c3c2)no1`, the fold change (FC) in data set [1] came out at 53.6; in data set [3], 42.6; in [4] it was 12.1; in [5] it was 3.76; in [6], 1.73; in [7], 36.6. Besides, the fold change (FC) in [8] came out at 38.4. For the same molecule, in data set [2], the Activity entry is given as “Non-toxic”. In addition, the Stability result in [9] is recorded as “Unstable”.
As for `O=[N+]([O-])c1ccc(-c2nc(-c3ccc4nc[nH]c4c3)no2)cc1`, the fold change (FC) came to 36.7 in data set [1]; 30.6 in [3]; 6.59 in data set [4]; 2.02 in data set [5]; 1.64 in [6]; 15.6 in data set [7]. In addition, the fold change (FC) in data set [8] stood at 38.3. In data set [2], the Activity result is reported as “Non-toxic”. Moreover, the Stability result in data set [9] was “Unstable”.
As to `Cc1nc2cc(-c3noc(-c4ccccc4Br)n3)ccc2o1`, the fold change (FC) in data set [1] is 4.05; in data set [10], 5.47; in data set [3], 5.88; in data set [4], 1.47; in data set [5], 1.22; in data set [6], 1.18. In addition, the results for the fold change (FC) in data set [7] and in data set [8] were 3.31 and 6, respectively.
Regarding `Cn1cnc2ccc(-c3noc(-c4ccc5cc[nH]c5c4)n3)cc21`, the fold change (FC) amounted to 3.4 in [11]; 12.4 in data set [1]; 1.5 in [15]; 12.1 in [3]; 3.35 in [4]; 7 in data set [17]. Also, the fold change (FC) in data set [19] is 2.5; in data set [20], 5; in data set [5], 1.5; in data set [21], 2; in data set [22], 3.8; in data set [6], 1.09. For the same molecule, the fold change (FC) in data set [7] amounted to 7.61; in data set [25], 2.4; in data set [8] it was 8.73. The Activity result was “Dose-dependent effect” in data set [12]; “tde” in data set [13]; “Dose-dependent effect” in [14]; “Dose-dependent effect” in [16]; “Dose-dependent effect” in [23]; “Non-toxic” in [24]. In data set [27], the Activity entry was “Dose-dependent effect”. For the same molecule, the outcome in data set [18] and in data set [26] was Active.
Turning to `Cn1nnc2ccc(-c3noc(-c4ccc(F)cc4)n3)cc21`, the fold change (FC) came out at 5.96 in data set [1]; 5.48 in [3]; 3.17 in data set [4]; 1.83 in [5]; 1.46 in data set [6]; 3.88 in data set [7]. In addition, the fold change (FC) in data set [8] was 8.36. Moreover, the Activity result in [24] was “Non-toxic”.
